In ChEMBL document CHEMBL1201862, “PubChem BioAssay data set” (2004):
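How tested: cells in 96-well plates exposed to compound for 48 hours at five concentrations. At the GI50, growth is halved.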 The source made the active and inactive calls. No stated cut-off is given here; in the data, active = GI50 up to about 1.1 µM and inactive = higher.

Experiments:
Experiment in all cases: inhibition of tumour cell growth, NCI panel, 48 h
UACC-257 = system: UACC-257
NCI-H226 = system: NCI-H226
SK-MEL-2 = system: SK-MEL-2
SNB-75 = system: SNB-75
OVCAR-5 = system: OVCAR-5
RXF 393 = system: RXF 393
M14 = system: M14
COLO 205 = system: COLO 205
HCT-116 = system: HCT-116
UO-31 = system: UO-31
HCC 2998 = system: HCC 2998
HL-60 = system: HL-60
SW-620 = system: SW-620
A498 = system: A498
786-0 = system: 786-0
TK-10 = system: TK-10

Measured: GI50

CCCCCCC(/C=N/O)C(C)(O)CCC (stereo not drawn)
inactive: UACC-257 > 100 µM | NCI-H226 > 100 µM | SK-MEL-2 > 100 µM | SNB-75 > 100 µM | OVCAR-5 > 100 µM | RXF 393 > 100 µM | M14 > 100 µM | COLO 205 > 100 µM | HCT-116 91.4 µM | UO-31 > 100 µM | HCC 2998 > 100 µM | HL-60 67.9 µM | SW-620 > 100 µM | A498 > 100 µM | 786-0 > 100 µM | TK-10 > 100 µM

NC(=O)c1coc(C2OC(CO)C(O)C2O)n1 (stereo not drawn)
inactive: NCI-H226 > 100 µM | SK-MEL-2 > 100 µM | OVCAR-5 > 100 µM | M14 > 100 µM | COLO 205 > 100 µM | HCT-116 > 100 µM | UO-31 > 100 µM | HCC 2998 > 100 µM | HL-60 > 100 µM | SW-620 > 100 µM | A498 > 100 µM | 786-0 > 100 µM | TK-10 > 100 µM

O=C1[C@@H]2C(c3ccccc3[N+](=O)[O-])=NO[C@@H]2C(=O)N1c1ccc(Cc2ccc(N3C(=O)[C@H]4C(c5ccccc5[N+](=O)[O-])=NO[C@H]4C3=O)cc2)cc1
inactive: UACC-257 > 100 µM | SNB-75 > 100 µM | OVCAR-5 > 100 µM | RXF 393 > 100 µM | M14 > 100 µM | COLO 205 > 100 µM | HCT-116 > 100 µM | UO-31 > 100 µM | HCC 2998 > 100 µM | SW-620 > 100 µM | A498 > 100 µM | 786-0 > 100 µM | TK-10 > 100 µM

OC12c3ccccc3C1CCCCCC21OCCCO1 (stereo not drawn)
inactive: UACC-257 > 100 µM | NCI-H226 > 100 µM | SK-MEL-2 > 100 µM | SNB-75 > 100 µM | OVCAR-5 > 100 µM | RXF 393 > 100 µM | M14 > 100 µM | COLO 205 > 100 µM | HCT-116 > 100 µM | UO-31 > 100 µM | HL-60 11.4 µM | SW-620 > 100 µM | A498 > 100 µM | 786-0 > 100 µM | TK-10 > 100 µM

CCC(C)(O)c1cn(-c2cccc(S(=O)(=O)O)c2)nn1 (stereo not drawn)
inactive: UACC-257 > 100 µM | NCI-H226 > 100 µM | SK-MEL-2 > 100 µM | SNB-75 > 100 µM | OVCAR-5 > 100 µM | RXF 393 > 100 µM | M14 > 100 µM | COLO 205 > 100 µM | HCT-116 > 100 µM | UO-31 > 100 µM | HCC 2998 > 100 µM | HL-60 > 100 µM | SW-620 > 100 µM | A498 > 100 µM | 786-0 > 100 µM | TK-10 > 100 µM

COC(=O)C(C(=O)C(=O)Nc1nnc(S)[nH]1)c1csc(N)n1 (stereo not drawn)
inactive: UACC-257 > 100 µM | NCI-H226 > 100 µM | SK-MEL-2 > 100 µM | SNB-75 > 100 µM | OVCAR-5 > 100 µM | RXF 393 > 100 µM | M14 > 100 µM | COLO 205 > 100 µM | HCT-116 > 100 µM | UO-31 > 100 µM | HCC 2998 > 100 µM | HL-60 > 100 µM | SW-620 > 100 µM | A498 > 100 µM | 786-0 > 100 µM | TK-10 > 100 µM

COc1cc(/C=N\O[Si](C)(C)C(C)(C)C)ccc1O[Si](C)(C)C(C)(C)C
inactive: UACC-257 > 100 µM | SK-MEL-2 88.9 µM | SNB-75 > 100 µM | OVCAR-5 33.7 µM | RXF 393 36 µM | M14 92.5 µM | COLO 205 > 100 µM | HCT-116 32.4 µM | UO-31 > 100 µM | HCC 2998 24.5 µM | HL-60 37.8 µM | SW-620 > 100 µM | 786-0 32.4 µM | TK-10 > 100 µM

Cc1cc(N(CCC#N)CCC#N)ccc1/C=C1N=C(/C=C/c2ccccc2)OC(=O)N\1
inactive: UACC-257 > 100 µM | NCI-H226 33 µM | SK-MEL-2 > 100 µM | SNB-75 31.3 µM | OVCAR-5 > 100 µM | RXF 393 91.8 µM | M14 > 100 µM | COLO 205 > 100 µM | HCT-116 > 100 µM | UO-31 > 100 µM | HCC 2998 > 100 µM | HL-60 > 100 µM | SW-620 > 100 µM | A498 > 100 µM | 786-0 37.8 µM | TK-10 > 100 µM

CCOC(=O)CC1(C(=O)OCC)c2[nH]c3ccccc3c2CCN1Cc1ccccc1 (stereo not drawn)
inactive: UACC-257 17.7 µM | NCI-H226 19.1 µM | SK-MEL-2 17.9 µM | SNB-75 20.8 µM | OVCAR-5 20.5 µM | RXF 393 17.7 µM | M14 18.6 µM | COLO 205 16.7 µM | HCT-116 17 µM | UO-31 18.4 µM | HCC 2998 13.7 µM | HL-60 21.6 µM | SW-620 31.7 µM | A498 19.3 µM | 786-0 16.9 µM | TK-10 31.2 µM

CN(C)[C@@H]1C(O)=C(C(=O)NCNCCCC(=O)O)C(=O)[C@@]2(O)C(O)=C3C(=O)c4c(O)cccc4[C@@](C)(O)[C@H]3C[C@@H]12
inactive: UACC-257 > 100 µM | NCI-H226 > 100 µM | SK-MEL-2 > 100 µM | OVCAR-5 > 100 µM | RXF 393 > 100 µM | M14 > 100 µM | COLO 205 > 100 µM | HCT-116 > 100 µM | UO-31 > 100 µM | HCC 2998 > 100 µM | HL-60 > 100 µM | SW-620 > 100 µM | A498 > 100 µM | 786-0 > 100 µM | TK-10 > 100 µM

COc1ccc(OC)c2c3c(ccc12)C(c1ccccc1)OC3=O (stereo not drawn)
inactive: UACC-257 37.7 µM | NCI-H226 > 100 µM | SK-MEL-2 55 µM | SNB-75 38.7 µM | OVCAR-5 > 100 µM | RXF 393 39.9 µM | M14 > 100 µM | COLO 205 54 µM | HCT-116 72.9 µM | UO-31 36.8 µM | HCC 2998 > 100 µM | HL-60 33.7 µM | SW-620 85.1 µM | A498 81.7 µM | 786-0 60.7 µM | TK-10 60.4 µM

COc1ccc(-c2onc(-c3c(C)cc(C)cc3C)c2C2=NCCCN2)cc1
inactive: UACC-257 21.1 µM | NCI-H226 36.4 µM | SK-MEL-2 36.1 µM | OVCAR-5 > 100 µM | RXF 393 47.3 µM | M14 21.1 µM | COLO 205 27.7 µM | HCT-116 28 µM | UO-31 21.1 µM | HCC 2998 > 100 µM | HL-60 15.1 µM | SW-620 46.2 µM | 786-0 31.8 µM

Cn1ccc2c(C(=O)c3ccccc3)cccc2c1=O
inactive: UACC-257 > 100 µM | SK-MEL-2 57.7 µM | SNB-75 23.4 µM | RXF 393 47.5 µM | M14 36.1 µM | COLO 205 44.7 µM | HCT-116 36.7 µM | HCC 2998 89.5 µM | HL-60 24.9 µM | SW-620 37.9 µM | 786-0 39.3 µM | TK-10 > 100 µM

COc1cc(C(C)c2cc3c(cc2OCCCCCOc2cc4c(cc2C(C)c2cc(OC)c(OC)c(OC)c2)OCO4)OCO3)cc(OC)c1OC (stereo not drawn)
inactive: UACC-257 33.7 µM | NCI-H226 > 100 µM | SK-MEL-2 > 100 µM | SNB-75 59.8 µM | OVCAR-5 > 100 µM | RXF 393 > 100 µM | M14 > 100 µM | HCT-116 > 100 µM | UO-31 > 100 µM | HCC 2998 > 100 µM | HL-60 > 100 µM | SW-620 > 100 µM | A498 > 100 µM | 786-0 > 100 µM

COc1ccc(NC(=O)CCc2cc(C(C)(C)C)[nH]n2)cc1
inactive: UACC-257 > 100 µM | NCI-H226 > 100 µM | SK-MEL-2 > 100 µM | SNB-75 > 100 µM | OVCAR-5 > 100 µM | RXF 393 > 100 µM | M14 > 100 µM | COLO 205 > 100 µM | HCT-116 > 100 µM | UO-31 > 100 µM | HCC 2998 > 100 µM | HL-60 > 100 µM | SW-620 > 100 µM | A498 > 100 µM | 786-0 > 100 µM | TK-10 > 100 µM

COc1ccc(-c2nc(N)nc(-c3cc(C)ccc3O)c2Cl)cc1
inactive: UACC-257 > 100 µM | NCI-H226 > 100 µM | SNB-75 25 µM | OVCAR-5 > 100 µM | RXF 393 37.2 µM | M14 84.1 µM | COLO 205 > 100 µM | HCT-116 39.5 µM | UO-31 26.7 µM | HCC 2998 > 100 µM | HL-60 > 100 µM | SW-620 > 100 µM | A498 43.7 µM | 786-0 45.4 µM | TK-10 32.7 µM

O=C1OC(c2cccc(C(F)(F)F)c2)c2ccc3ccccc3c21 (stereo not drawn)
inactive: UACC-257 6.32 µM | NCI-H226 > 10 µM | SK-MEL-2 > 10 µM | SNB-75 18.7 µM | OVCAR-5 > 10 µM | RXF 393 13.5 µM | M14 > 10 µM | COLO 205 > 10 µM | HCT-116 > 10 µM | UO-31 9.68 µM | HCC 2998 > 10 µM | HL-60 5.5 µM | SW-620 > 10 µM | A498 > 10 µM | 786-0 > 10 µM | TK-10 > 10 µM

O=C(Nc1cc(Cl)c(Cl)cc1Cl)C(=O)C1C=CCS1(=O)=O (stereo not drawn)
inactive: UACC-257 > 100 µM | NCI-H226 87.3 µM | SK-MEL-2 > 100 µM | SNB-75 72.6 µM | OVCAR-5 > 100 µM | RXF 393 > 100 µM | M14 > 100 µM | COLO 205 > 100 µM | HCT-116 > 100 µM | UO-31 > 100 µM | HCC 2998 > 100 µM | HL-60 > 100 µM | SW-620 > 100 µM | A498 > 100 µM | 786-0 > 100 µM | TK-10 > 100 µM
